“And” between values parts separate entries of the source, which are not always exact repeats. Identical values can stand only once.
Experiments:
Type in all cases: cell-based
CFTR G551D mutant = target: T1, CFTR G551D mutant (Homo sapiens, UniProt P13569, G551D); assay: YFP-halide influx assay for the CFTR-G551D mutation (HEK293 cells); conditions: HEK293 cells expressing CFTR G551D and YFP reporter; forskolin 10.67 μM; read-out: EC50 measured by YFP-halide influx assay for the CFTR-G551D
T1 construct: expressed in transfected cells; host or cells: HEK293 (reverse transfection with plasmids)
T1 sequence (P13569 whole entry G551D): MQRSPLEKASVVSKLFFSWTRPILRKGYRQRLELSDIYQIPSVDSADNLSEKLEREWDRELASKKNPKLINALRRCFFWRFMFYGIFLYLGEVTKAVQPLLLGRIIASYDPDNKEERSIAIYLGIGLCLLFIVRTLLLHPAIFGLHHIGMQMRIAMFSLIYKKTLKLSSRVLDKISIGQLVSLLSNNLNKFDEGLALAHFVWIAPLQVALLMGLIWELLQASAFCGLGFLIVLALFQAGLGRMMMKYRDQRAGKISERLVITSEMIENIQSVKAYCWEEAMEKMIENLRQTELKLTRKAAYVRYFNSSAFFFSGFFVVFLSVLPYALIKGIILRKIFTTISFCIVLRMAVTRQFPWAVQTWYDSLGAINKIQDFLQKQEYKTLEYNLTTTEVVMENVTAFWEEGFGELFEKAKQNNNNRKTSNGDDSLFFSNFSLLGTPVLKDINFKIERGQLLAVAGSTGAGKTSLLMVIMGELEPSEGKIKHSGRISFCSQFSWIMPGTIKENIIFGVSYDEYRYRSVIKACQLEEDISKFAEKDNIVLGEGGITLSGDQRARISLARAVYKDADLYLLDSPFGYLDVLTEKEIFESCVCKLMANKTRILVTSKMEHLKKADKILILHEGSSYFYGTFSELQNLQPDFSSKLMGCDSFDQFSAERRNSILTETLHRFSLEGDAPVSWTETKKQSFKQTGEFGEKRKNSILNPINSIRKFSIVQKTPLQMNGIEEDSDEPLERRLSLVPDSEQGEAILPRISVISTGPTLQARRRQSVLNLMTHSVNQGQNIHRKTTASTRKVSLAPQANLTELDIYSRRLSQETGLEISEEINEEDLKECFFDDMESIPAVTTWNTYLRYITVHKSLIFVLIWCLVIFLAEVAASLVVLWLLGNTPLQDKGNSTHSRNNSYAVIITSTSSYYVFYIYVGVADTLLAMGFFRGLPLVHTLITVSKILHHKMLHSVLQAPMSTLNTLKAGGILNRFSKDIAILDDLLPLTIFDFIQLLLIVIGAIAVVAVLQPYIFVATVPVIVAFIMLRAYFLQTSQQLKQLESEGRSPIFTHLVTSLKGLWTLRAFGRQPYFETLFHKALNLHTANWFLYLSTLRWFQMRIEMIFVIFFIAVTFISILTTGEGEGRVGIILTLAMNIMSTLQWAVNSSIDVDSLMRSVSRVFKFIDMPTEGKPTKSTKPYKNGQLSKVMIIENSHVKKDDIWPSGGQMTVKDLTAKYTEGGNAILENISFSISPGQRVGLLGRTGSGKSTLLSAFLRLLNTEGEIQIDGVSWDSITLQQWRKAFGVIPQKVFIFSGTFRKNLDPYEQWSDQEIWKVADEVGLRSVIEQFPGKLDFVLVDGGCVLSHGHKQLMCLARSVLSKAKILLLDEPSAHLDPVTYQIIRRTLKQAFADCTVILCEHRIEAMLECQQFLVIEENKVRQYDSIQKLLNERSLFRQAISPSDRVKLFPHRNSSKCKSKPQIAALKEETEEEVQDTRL
Procedure, shortened: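 HEK293 cells reverse-transfected with CFTR G551D and halide-sensitive YFP, expressed 24 h at 37 °C. Iodide-induced fluorescence quench recorded for 7 s after I^− injection; response as 1−F/F0, EC50 from concentration plot.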

CFTR-G1349D = target: T2, CFTR-G1349D (Homo sapiens, UniProt P13569, G1349D); assay: YFP-halide influx assay for the CFTR-G1349D; conditions: CFTR-G1349D mutant; read-out: EC50 measured by YFP-halide influx assay for the CFTR-G1349D
T2 construct: expressed in transfected cells
T2 sequence (P13569 whole entry G1349D): as the sequence (P13569 whole entry G551D) above, with D551G, G1349D counted along it
Procedure, shortened: (§1)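 HEK293 cells reverse-transfected with mutant CFTR and halide-sensitive YFP H148Q/I152L/F47L reporter, then expressed 24 h at 37 °C, 5% CO2. Fluorescence quenching recorded for 7 s after I^− injection; response expressed as 1−F/F0, with EC50 derived from response versus compound concentration.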

CFTR-R117H = target: T3, CFTR-R117H (Homo sapiens, UniProt P13569, R117H); assay: YFP-halide influx assay for the CFTR-R117H; conditions: CFTR-R117H mutant; read-out: EC50 measured by YFP-halide influx assay for the CFTR-R117H
T3 construct: expressed in transfected cells
T3 sequence (P13569 whole entry R117H): as the sequence (P13569 whole entry G551D) above, with R117H, D551G counted along it
Procedure, shortened: as §1

CFTR G551D = CFTR G551D (Homo sapiens, UniProt P13569, G551D); assay: TECC assay, FRT cells stably transfected with G551D CFTR; conditions: high expression CFTR-G551D cells, several values in a cell = repeat determinations
Chain of CFTR G551D (P13569 whole entry G551D): as the sequence (P13569 whole entry G551D) above
Protocol: 7.2.3. FRT-CFTR G551D Protocol
For G551D recordings, Fish Rat Thyroid (FRT) cells stably transfected with G551D CFTR (a low CFTR-G551D expressing cell line and a high expressing CFTR-G551D cell line from Rosalind Franklin University of medicine and science, Chicago, Ill.) are plated on Transwell supports (Costar 6.5 mm Diameter, […]). The cells are grown for 8-10 d under liquid-liquid interface conditions prior to electrophysiological readings. For electrophysiological recording, the FRT-G551D cells are mounted in the TECC heating plate for electrophysiological measurement and kept at 37° C. The epithelia are bathed in hepes buffered culturing medium without FBS on both the basolateral and apical sides. Apical amiloride is used to inhibit the endogenous ENaC currents while forkolin is applied on both apical and basolateral side to stimulate CFTR. After forskolin triggering, compounds are added on both sides to test their potential for increasing CFTR gating. Measurements are done during a 10 minute timeframe with recordings every 2 min. The increase in ISC is used as a measure for the increased CFTR activity, EC50 values can be generated by measuring impact of different concentrations of compound on ISC on the cells, for this purpose each transwell is treated with a different compound concentration. Inh-172, an inhibitor specific for CFTR, is used to test the specificity of the tested compounds.
When subjected to this protocol, the following EC50 are measured.

CFTR ΔF508 mutant = target: T4, CFTR ΔF508 mutant (Homo sapiens, UniProt P13569, DEL508-508); assay: YFP-halide influx assay for the CFTR-ΔF508 mutation (384 well, CFBE41o- cells, FDSS/μCell); conditions: forskolin 10.67 μM, fluorescence after 36 seconds, read-out: EC50 measured by YFP-halide influx assay for the CFTR-ΔF508
T4 construct: expressed in transfected cells; host or cells: CFBE41o- (adenoviral transduction)
T4 sequence (P13569 with tags, fused parts or gaps DEL508-508): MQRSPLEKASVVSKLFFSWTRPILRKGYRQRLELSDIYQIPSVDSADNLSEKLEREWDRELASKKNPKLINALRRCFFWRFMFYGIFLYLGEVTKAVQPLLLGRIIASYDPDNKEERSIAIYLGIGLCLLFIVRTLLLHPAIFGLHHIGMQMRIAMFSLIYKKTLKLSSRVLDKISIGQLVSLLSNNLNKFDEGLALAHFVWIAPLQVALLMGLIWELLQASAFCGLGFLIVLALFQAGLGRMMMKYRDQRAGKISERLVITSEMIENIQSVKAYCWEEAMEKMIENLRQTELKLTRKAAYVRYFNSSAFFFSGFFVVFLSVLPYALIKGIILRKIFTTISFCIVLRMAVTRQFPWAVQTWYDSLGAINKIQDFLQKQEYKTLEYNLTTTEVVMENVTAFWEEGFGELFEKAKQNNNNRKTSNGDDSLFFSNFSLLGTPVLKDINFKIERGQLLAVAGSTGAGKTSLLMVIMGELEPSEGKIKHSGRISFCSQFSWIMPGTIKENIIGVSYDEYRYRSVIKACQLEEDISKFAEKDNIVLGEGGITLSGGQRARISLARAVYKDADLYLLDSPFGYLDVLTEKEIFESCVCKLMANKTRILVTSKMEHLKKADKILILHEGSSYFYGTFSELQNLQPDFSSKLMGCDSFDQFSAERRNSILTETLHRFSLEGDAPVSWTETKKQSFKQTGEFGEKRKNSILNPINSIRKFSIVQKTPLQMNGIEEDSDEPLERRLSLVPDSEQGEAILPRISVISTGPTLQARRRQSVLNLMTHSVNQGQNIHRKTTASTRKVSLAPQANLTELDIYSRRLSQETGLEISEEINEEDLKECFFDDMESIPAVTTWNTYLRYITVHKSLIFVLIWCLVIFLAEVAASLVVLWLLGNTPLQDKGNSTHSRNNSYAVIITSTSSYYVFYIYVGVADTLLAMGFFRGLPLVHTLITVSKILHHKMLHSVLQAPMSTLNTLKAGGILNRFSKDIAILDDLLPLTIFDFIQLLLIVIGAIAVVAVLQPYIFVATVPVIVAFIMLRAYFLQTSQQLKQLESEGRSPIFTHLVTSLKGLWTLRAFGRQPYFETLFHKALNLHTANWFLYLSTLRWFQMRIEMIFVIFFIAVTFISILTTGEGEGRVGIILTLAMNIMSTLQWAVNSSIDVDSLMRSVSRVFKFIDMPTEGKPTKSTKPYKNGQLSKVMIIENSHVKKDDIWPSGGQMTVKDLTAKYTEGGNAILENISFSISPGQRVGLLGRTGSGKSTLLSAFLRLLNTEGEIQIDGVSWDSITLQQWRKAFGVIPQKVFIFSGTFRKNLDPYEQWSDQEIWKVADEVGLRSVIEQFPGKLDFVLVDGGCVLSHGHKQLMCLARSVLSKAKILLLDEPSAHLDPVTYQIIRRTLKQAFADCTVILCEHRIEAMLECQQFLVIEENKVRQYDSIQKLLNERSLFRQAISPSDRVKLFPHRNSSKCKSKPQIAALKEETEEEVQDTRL
Procedure, shortened: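 CFBE41o- cells were adenovirally transduced with ΔF508 CFTR and the YFP H148Q/I152L reporter. Cells were then held 24 h at 27 °C or treated 24 h at 37 °C with a CFTR modulator. Iodide-induced quench was recorded for 2 min, and EC50 was derived from 1−F/F0 at 36 s against compound concentration.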

CFTR-G178R = target: T5, CFTR-G178R (Homo sapiens, UniProt P13569, G178R); assay: YFP-halide influx assay for the CFTR-G178R; conditions: read-out: EC50 measured by YFP-halide influx assay for the CFTR-G178R
T5 construct: expressed in transfected cells
T5 sequence (P13569 whole entry G178R): as the sequence (P13569 whole entry G551D) above, with G178R, D551G counted along it
Procedure, shortened: as §1

CFTR-S549N = target: T6, CFTR-S549N (Homo sapiens, UniProt P13569, S549N); assay: YFP-halide influx assay for the CFTR-S549N; conditions: CFTR-S549N mutant; read-out: EC50 measured by YFP-halide influx assay for the CFTR-S549N
T6 construct: expressed in transfected cells
T6 sequence (P13569 whole entry S549N): as the sequence (P13569 whole entry G551D) above, with S549N, D551G counted along it
Procedure, shortened: as §1

EC50 (CFTR G551D mutant) | EC50 (CFTR-G1349D) | EC50 (CFTR-R117H) | EC50 (CFTR G551D) | EC50 (CFTR ΔF508 mutant) | EC50 (CFTR-G178R) | EC50 (CFTR-S549N) | SMILES
500 nM | 63.3 nM | 166 nM | 66.2 nM and 90.2 nM and 85 nM and 61.5 nM and 57.8 nM and 87.4 nM | 3.4 nM | 56.9 nM | 211 nM | CC1(C)Cc2c(sc(NC(=O)c3ccn[nH]3)c2C(N)=O)C(C)(C)O1 [Compound 2, N-(3-carbamoyl-5,5,7,7-tetramethyl-5,7-dihydro-4H-thieno[2,3-c]pyran-2-yl)-1H-pyrazole-5-carboxamide]
1340 nM | – | – | – | 22.6 nM | – | – | CC1(C)Cc2c(sc(NC(=O)C3(O)CC3)c2C(N)=O)C(C)(C)O1 [Compound 4, 2-(1-hydroxycyclopropanecarboxamido)-5,5,7,7-tetramethyl-5,7-dihydro-4H-thieno[2,3-c]pyran-3-carboxamide]
1000 nM | 578 nM | 433 nM | 361 nM and 527 nM and 695 nM and 400 nM and 511 nM | 15.1 nM | 699 nM | 902 nM | CC1(C)Cc2c(sc(NC(=O)C3(CO)CC3)c2C(N)=O)C(C)(C)O1 [Compound 9, 2-(1-(hydroxymethyl)cyclopropanecarboxamido)-5,5,7,7-tetramethyl-5,7-dihydro-4H-thieno[2,3-c]pyran-3-carboxamide]
2650 nM | – | – | – | 74.6 nM | – | – | CC1(C)Cc2c(sc(NC(=O)C(C)(C)CO)c2C(N)=O)C(C)(C)O1 [Compound 10, 2-(3-hydroxy-2,2-dimethylpropanamido)-5,5,7,7-tetramethyl-5,7-dihydro-4H-thieno[2,3-c]pyran-3-carboxamide]

— patent US9351955B2, “Compounds and pharmaceutical compositions thereof for the treatment of cystic fibrosis” (Galapagos NV, priority 2013, dated 2016)
